Results as given in patent US20110118229A1, “2-ARYLMETHYLAZETIDINE-CARBAPENEM-3-CARBOXYLIC ACID ESTER DERIVATIVE OR ITS SALT, PROCESS FOR THE PREPARATION THEREOF AND PHARMACEUTICAL COMPOSITION COMPRISING THE SAME” (KUKJE PHARM. IND. CO., LTD., priority 2007, published 2011).
Values after ≈ are worked out from the molar mass of the structure shown.

Experiments:
[1] = Test of Pharmacokinetics in mice (blood concentration by bioassay); conditions: I.C.R mice, 40 mg/kg; for AUC (area under blood concentration curve): bioassay
Description: The pharmacokinetics of the compounds of the present invention was determined using mice. […] Blood samples were collected from mice tails at 10 min., 20 min., 30 min., 45 min., 1 hour, 1.5 hours, 2 hours, 3 hours and 4 hours after the administration. […] Blood samples were collected from mice tails in the same manner described above.
The concentrations of each compound in blood were measured using bioassay methods: Agar plate was prepared with agar medium containing 1% Streptococcus Pyogenes 77A culture solution, and the blood samples and the diluted standards (each of which were obtained by dilution of the already-known concentration by two times) were added to wells formed on the plates. The plate was stored at 4° C. for 1 hour to is allow the sample to spread, and incubated at 37° C. for 18 hours. Diameters of each inhibition-circle were measured and then the concentration of the compounds in blood was calculated, based on the calibration curve obtained from the diluted standards.

[2] = system: I.C.R. mice; test: Acute Toxicity Test, oral, mice; type: in vivo; conditions: observed 7 days
Description: The acute toxicity of the compound of Example 1 was tested using several groups of I.C.R. mice each of 10 mice. 500 mg/kg, 1,000 mg/kg, and 2,000 mg/kg doses of the compound of Example 1 were orally administered. […] Thus, LD50 was placed at a level higher than 2,000 mg/kg. The compound of Example 1 is thus a largely non-toxic antibiotic.
In addition, acute toxicity of the compounds of Examples 10 and 17 was tested using two groups of I.C.R. mice each of 5 mice/2 groups. 1,000 mg/kg, 2,000 mg/kg, and 3,000 mg/kg doses of the compounds of Examples 10 to 17 were orally administered. […] Thus, LD50 was placed at a level higher than 3,000 mg/kg. Therefore, the compounds of Examples 10 to and 17 are non-toxic antibiotics.

[3] = Chemical Stability Test (HPLC purity on storage); type: physicochemical
Description: 500 mg of the compound prepared in Example 10 was charged into a glass bottle, and HPLC purities of the compound were measured at the condition of 40° C. and a humidity of 75%, at 1 week, 2 week, 3 week, and 1 month. The HPLC purities were obtained by comparing each of the measured HPLC amounts with the initial HPLC amount.

[4] = system: Enterobacter cloacae ATCC 13880; test: Minimum Inhibitory Concentration (MIC); type: cell-based
Text: (§1) The metabolite has a wide spectrum of antibacterial activities against Gram-negative and Gram-positive bacteria and excellent antibacterial activities against resistant bacteria such as methicillin-resistant Staphylococcus aurus (MRSA) and quinolone-resistant strains (QRS), as in WO2006/025634 by the present inventors.

[5] = system: Enterobacter cloacae P 99(2)3; test: Minimum Inhibitory Concentration (MIC); type: cell-based
Text: as §1

[6] = system: GBBS ATCC 12386; test: Minimum Inhibitory Concentration (MIC); type: cell-based
Text: as §1

[7] = system: Klebsiella oxytoca 1082; test: Minimum Inhibitory Concentration (MIC); type: cell-based; conditions: strain 1082
Text: as §1

[8] = system: Klebsiella pneumoniae ATCC 13883; test: Minimum Inhibitory Concentration (MIC); type: cell-based
Text: as §1

[9] = system: Moraxella catarrhalis AMP S(3); test: Minimum Inhibitory Concentration (MIC); type: cell-based; conditions: 3 strains
Text: as §1

[10] = system: Salmonella typhimurium 179; test: Minimum Inhibitory Concentration (MIC); type: cell-based; conditions: strain 179
Text: as §1

[11] = system: Staphylococcus aureus (2); test: Minimum Inhibitory Concentration (MIC); type: cell-based; conditions: 2 strains
Text: as §1

[12] = system: Staphylococcus aureus ATCC 29213; test: Minimum Inhibitory Concentration (MIC); type: cell-based
Text: as §1

[13] = system: Streptococcus ATCC 496 (4); test: Minimum Inhibitory Concentration (MIC); type: cell-based
Text: as §1

[14] = system: Streptococcus faecium (1); test: Minimum Inhibitory Concentration (MIC); type: cell-based; conditions: 1 strain
Text: as §1

[15] = system: Streptococcus pneumoniae Pen. R (4); test: Minimum Inhibitory Concentration (MIC); type: cell-based; conditions: 4 strains
Text: as §1

[16] = system: Streptococcus pneumoniae Pen. S (4); test: Minimum Inhibitory Concentration (MIC); type: cell-based; conditions: 4 strains
Text: as §1

[17] = system: Escherichia coli (4); test: Minimum Inhibitory Concentration (MIC); type: cell-based; design: unit not given here; conditions: 4 strains
Text: as §1

[18] = system: Klebsiella pneumoniae (4); test: Minimum Inhibitory Concentration (MIC); type: cell-based; design: unit not given here; conditions: 4 strains
Text: as §1

[19] = system: Moraxella catarrhalis AMP R(3); test: Minimum Inhibitory Concentration (MIC); type: cell-based; design: unit not given here; conditions: 3 strains
Text: as §1

[20] = system: Staphylococcus aureus (10), MRSA; test: Minimum Inhibitory Concentration (MIC); type: cell-based; design: unit not given here; conditions: 10 strains
Text: as §1

[21] = system: Staphylococcus aureus (5), QRS; test: Minimum Inhibitory Concentration (MIC); type: cell-based; design: unit not given here; conditions: 5 strains
Text: as §1

[22] = system: Streptococcus Levo. R (4); test: Minimum Inhibitory Concentration (MIC); type: cell-based; design: unit not given here; conditions: 4 strains
Text: as §1

[23] = system: Streptococcus Levo. S (4); test: Minimum Inhibitory Concentration (MIC); type: cell-based; design: unit not given here; conditions: 4 strains
Text: as §1

[24] = system: Streptococcus pyogenes (2); test: Minimum Inhibitory Concentration (MIC); type: cell-based; design: unit not given here; conditions: 2 strains
Text: as §1

[25] = oral, 500, 1,000 and 2,000 mg/kg
[26] = oral, 1,000, 2,000 and 3,000 mg/kg

1-(isopropyloxycarbonyloxy)ethyl(1R,5S,6S)-2-[(1-(4-fluorobenzyl)azetidin-3-yl)thio]-6-[(R)-1-hydroxyethyl]-1-methyl-carbapen-2-em-3-carboxylate [Example 2]
ratio of oral/subcutaneous AUCs [1]: about 54% | Cmax (maximum blood concentration) ([1]; PO): 72.8 µg/mL | T1/2 (half time of blood concentration) ([1]; PO): 1.15 h | Tmax (time at the point of maximum blood concentration) ([1]; PO): 1.00 h | AUC (area under blood concentration curve) ([1]; PO): 94.8 µg·h/mL | Cmax (maximum blood concentration) ([1]; SC): 66.4 µg/mL | T1/2 (half time of blood concentration) ([1]; SC): 3.92 h | Tmax (time at the point of maximum blood concentration) ([1]; SC): 0.75 h | AUC (area under blood concentration curve) ([1]; SC): 174 µg·h/mL

C[C@@H](O)[C@H]1C(=O)N2C(C(=O)OCOC(=O)C(C)(C)C)=C(SC3CN(Cc4ccc(F)cc4)C3)[C@H](C)[C@H]12 [Example 1, pivaloyloxymethyl(1R,5S,6S)-2-[(1-(4-fluorobenzyl)azetidin-3-yl)thio]-6-[(R)-1-hydroxyethyl]-1-methyl-carbapen-2-em-3-carboxylate]
LD50 [2, 25]: higher than 2,000 mg/kg | body temperature change and weight change [2, 25]: no distinct body temperature change nor weight loss were observed | death [2, 25]: no mice died | ratio of oral/subcutaneous AUCs [1]: about 52% | Cmax (maximum blood concentration) ([1]; PO): 88.1 µg/mL | T1/2 (half time of blood concentration) ([1]; PO): 0.931 h | Tmax (time at the point of maximum blood concentration) ([1]; PO): 0.38 h | AUC (area under blood concentration curve) ([1]; PO): 117 µg·h/mL | Cmax (maximum blood concentration) ([1]; SC): 97.9 µg/mL | T1/2 (half time of blood concentration) ([1]; SC): 6.28 h | Tmax (time at the point of maximum blood concentration) ([1]; SC): 1.76 h | AUC (area under blood concentration curve) ([1]; SC): 226 µg·h/mL

CC(OC(=O)OC1CCCCC1)OC(=O)C1=C(SC2CN(Cc3ccc(F)cc3)C2)[C@H](C)[C@@H]2[C@@H]([C@@H](C)O)C(=O)N12 (stereo partly drawn) [Example 3, 1-(cyclohexyloxycarbonyloxy)ethyl(1R,5S,6S)-2-[(1-(4-fluorobenzyl)azetidin-3-yl)thio]-6-[(R)-1-hydroxyethyl]-1-methyl-carbapen-2-em-3-carboxylate]
ratio of oral/subcutaneous AUCs [1]: about 113% | Cmax (maximum blood concentration) ([1]; PO): 39.0 µg/mL | T1/2 (half time of blood concentration) ([1]; PO): 1.43 h | Tmax (time at the point of maximum blood concentration) ([1]; PO): 0.59 h | AUC (area under blood concentration curve) ([1]; PO): 64.5 µg·h/mL | Cmax (maximum blood concentration) ([1]; SC): 16.2 µg/mL | T1/2 (half time of blood concentration) ([1]; SC): 1.05 h | Tmax (time at the point of maximum blood concentration) ([1]; SC): 2.50 h | AUC (area under blood concentration curve) ([1]; SC): 56.9 µg·h/mL

C[C@@H](O)[C@H]1C(=O)N2C(C(=O)OCOC(=O)C(C)(C)C)=C(SC3CN(Cc4ccc(F)cc4)C3)[C@H](C)[C@H]12.O=P(O)(O)O [Example 10, Phosphoric Acid Salt of pivaloyloxymethyl(1R,5S,6S)-2-[(1-(4-fluorobenzyl)azetidin-3-yl)thio]-6-[(R)-1-hydroxyethyl]-1-methyl-carbapen-2-em-3-carboxylate]
HPLC Purity ([3]; 40° C., humidity 75%, 1 month): 99.69% | HPLC Purity ([3]; 40° C., humidity 75%, 1 week): 99.85% | HPLC Purity ([3]; 40° C., humidity 75%, 2 week): 99.78% | HPLC Purity ([3]; 40° C., humidity 75%, 3 week): 99.74% | HPLC Purity ([3]; Initial): 99.83% | body temperature change and weight change [2, 26]: no body distinct temperature change nor weight loss were observed | death [2, 26]: no mice died

C[C@@H](O)[C@H]1C(=O)N2C(C(=O)OCOC(=O)C(C)(C)C)=C(SC3CN(Cc4ccc(F)cc4)C3)[C@H](C)[C@H]12.O=C(O)/C=C/C(=O)O [Example 17, Fumaric Acid Salt of pivaloyloxymethyl(1R,5S,6S)-2-[(1-(4-fluorobenzyl)azetidin-3-yl)thio]-6-[(R)-1-hydroxyethyl]-1-methyl-carbapen-2-em-3-carboxylate]
body temperature change and weight change [2, 26]: no body distinct temperature change nor weight loss were observed | death [2, 26]: no mice died

C[C@@H](O)[C@H]1C(=O)N2C(C(=O)O)=C(SC3CN(Cc4ccc(F)cc4)C3)[C@H](C)[C@H]12 [Preparation Example 4, (1R,5S,6S)-2-[(1-(4-fluorobenzyl)azetidin-3-yl)thio]-6-[(R)-1-hydroxyethyl]-1-methyl-carbapen-2-em-3-carboxylic acid]
MIC [4]: 2 mg/L (≈ 4.92 µM) | MIC [5]: 0.049 mg/L (≈ 0.121 µM) | MIC [6]: 0.03 mg/L (≈ 0.0738 µM) | MIC [7]: 0.049 mg/L (≈ 0.121 µM) | MIC [8]: 0.122 mg/L (≈ 0.301 µM) | MIC [9]: < 0.008 mg/L | MIC [10]: 0.049 mg/L (≈ 0.121 µM) | MIC [11]: 0.002 mg/L (≈ 0.00492 µM) | MIC [12]: 0.015 mg/L (≈ 0.0369 µM) | MIC [13]: 0.03 mg/L (≈ 0.0738 µM) | MIC [14]: 1.56 mg/L (≈ 3.85 µM) | MIC [15]: 0.12 mg/L (≈ 0.295 µM) | MIC [16]: < 0.008 mg/L | MIC [17]: 0.025-0.098 | MIC [18]: 0.06-0.25 | MIC [19]: 0.03-0.12 | MIC [20]: 0.025-3.125 | MIC [21]: 0.049-0.391 | MIC [22]: 0.006-0.12 | MIC [23]: <0.008-0.25 | MIC [24]: 0.013-0.025 | Cmax (maximum blood concentration) ([1]; PO): 3.97 µg/mL | T1/2 (half time of blood concentration) ([1]; PO): 1.32 h | Tmax (time at the point of maximum blood concentration) ([1]; PO): 0.56 h | AUC (area under blood concentration curve) ([1]; PO): 8.28 µg·h/mL | Cmax (maximum blood concentration) ([1]; SC): 68.5 µg/mL | T1/2 (half time of blood concentration) ([1]; SC): 0.76 h | Tmax (time at the point of maximum blood concentration) ([1]; SC): 0.38 h | AUC (area under blood concentration curve) ([1]; SC): 83.24 µg·h/mL
